How the values were obtained:
Type in all cases: cell-based, HIV-1
[1] = test system: recombinant virus generated from HXB2D site-directed mutant virus, integrase T66I/S153Y mutations; experiment: Antiviral experiment with recombinant virus from site-directed mutant virus, T66I/S153Y; details: versus wild type, MT4-LTR-EGFP cells
Procedure: (§1) The integrase encoding sequence was amplified from either wildtype HIV-1 (IIIB) or NL4.3 virus, or HXB2D site-directed mutant viruses containing mutations in integrase (such as T66I, S153Y, M154I, or combinations thereof) (Hazuda et al., Science 2000, 287, 646–650), or patient samples. Starting from RNA, extracted from virus supernatant or plasma using the QIAamp® viral RNA extraction kit (Qiagen), cDNA was synthesized by reverse transcription (Expand™ reverse transcriptase, 30 min at 42° C.) with the primer 3′EGINT10 (SEQ ID NO 11), followed by a nested PCR. […]
(§2) Recombinant virus was produced by co-transfection by electroporation of the SmaI-linearized IN-deletion construct and the integrase amplicon into MT4 cells or MT4 cells equipped with an LTR driven reporter gene construct. Production of recombinant virus was evaluated by scoring the cytopathogenic effect (CPE) that is induced by HIV-infection of MT4 cells or by the LTR-driven reporter signal induced by HIV infection in MT4 reporter cells. […]

[2] = test system: recombinant virus generated from HXB2D site-directed mutant virus, integrase M154I mutation; experiment: Antiviral experiment with recombinant virus from site-directed mutant virus, M154I; details: versus wild type, MT4-LTR-EGFP cells
Procedure: as §1, §2

[3] = test system: recombinant virus generated from HXB2D site-directed mutant virus, integrase T66I/M154I mutations; experiment: Antiviral experiment with recombinant virus from site-directed mutant virus, T66I/M154I; details: versus wild type, MT4-LTR-EGFP cells
Procedure: as §1, §2

[4] = test system: recombinant virus generated from HXB2D site-directed mutant virus, integrase T66I mutation; experiment: Antiviral experiment with recombinant virus from site-directed mutant virus, T66I; details: versus wild type, MT4-LTR-EGFP cells
Procedure: as §1, §2

[5] = test system: recombinant virus generated from HXB2D site-directed mutant virus, integrase S153Y; experiment: Antiviral experiment with recombinant virus from site-directed mutant virus, S153Y; details: S153Y mutation in integrase; versus wild type; MT4-LTR-EGFP cells
Procedure: as §1, §2

CC(C)Oc1ccc(Cc2ccccc2)cc1C(=O)CC(=O)C(=O)O [compound 4, 2-(1-methylethyloxy)-, -dioxo-5-(phenylmethyl)-benzenebutanoic acid]
fold increase in EC50 [1]: 10 fold | fold increase in EC50 [2]: 3 fold | fold increase in EC50 [3]: 10 fold | fold increase in EC50 [4]: 2 fold | fold increase in EC50 [5]: 5 fold
